Read-outs that look alike come from different tables or passages of the source.
Tests used:
[1] = Single-dose oral toxicokinetic study of prodrugs in rats; format: in vivo, rat; details: for concentration at 24 h / half-life / AUC / Cmax: rat, plasma; for time post-dose at which mean maximum plasma concentration (Cmax) was achieved: rats, single oral dose of prodrug
Experimental: A 1-day oral toxicokinetic study in rats was conducted using the prodrug Iab (monolysine salt). Iab was administered at dosages of 16, 72, and 267 mg/kg (free acid) by oral gavage to three male rats/group using water as the vehicle (solution formulation). The dosages of prodrug free acid correspond to IVa (parent) molar equivalent dosages of 13, 57, and 211 mg/kg, respectively. The endpoint evaluated was plasma toxicokinetics of Iab and IVa in the individual rats.
A 1-day oral toxicokinetic study in rats was conducted by using the prodrug Ibb (monolysine salt). Ibb was administered at dosages of 19, 64, and 236 mg/kg (free acid) by oral gavage to three male rats/group using water as the vehicle (solution formulation).
A 1-day oral toxicokinetic study in rats was conducted using the prodrug Icb (disodium salt). Icb was administered at dosages of 5, 25, and 200 mg/kg (free acid) by oral gavage to three male rats/group using water as the vehicle (solution formulation).

[2] = IV and PO pharmacokinetic studies of prodrug salts (Iab, Ibb, Icb) in the monkey, with historical parent data; format: in vivo, cynomolgus monkeys
Experimental: The IV and PO studies of Iab were conducted in a crossover fashion in three male cynomolgus monkeys (11±1.2 kg, Charles River Biomedical Research Foundation, Houston, Tex.). There was a two-week washout period between the IV and PO studies.
In the IV study, Iab was infused via the femoral vein at 1.3 mg/kg (free acid, or 1.1 mg/kg of IVa equivalent) over 5 min at a constant rate of 0.1 mL/kg/min. The concentration of the dosing solution was 2.6 mg/mL, and the dosing volume was 0.5 mL/kg. Serial blood samples were collected from the femoral artery before dosing and at 5, 10, 15, 30, 45 min, 1, 2, 4, 6, 8 and 24 hr after dosing.
In the PO study, the monkeys were fasted overnight before dosing. Iab was administered by oral gavage at 7.1 mg/kg (free acid, or 5.6 mg/kg of IVa equivalent). The concentration of the dosing solution was 14.2 mg/mL, and the dosing volume was 0.5 mL/kg. Serial blood samples were collected before dosing and at 15, 30, 45 min, 1, 2, 4, 6, 8 and 24 hr after dosing.
The IV and PO studies of Ibb were conducted in a crossover fashion in three male cynomolgus monkeys (9.9±2.4 kg, Charles River Biomedical Research Foundation, Houston, Tex.). There was a two-week washout period between the IV and PO studies.
The concentration of the dosing solution was 2.7 mg/mL, and the dosing volume was 0.5 mL/kg. Serial blood samples were collected from the femoral artery before dosing and at 5, 10, 15, 30, 45 min, 1, 2, 4, 6, 8 and 24 hr after dosing.
In the PO study, the monkeys were fasted overnight before dosing. […] The concentration of the dosing solution was 5.8 mg/mL, and the dosing volume was 1 mL/kg. Serial blood samples were collected before dosing and at 15, 30, 45 min, 1, 2, 4, 6, 8 and 24 hr after dosing.
The IV and PO studies of Icb were conducted in a crossover fashion in three male cynomolgus monkeys (10±1.6 kg, Charles River Biomedical Research Foundation, Houston, Tex.). There was a two-week washout period between the IV and PO studies.
The concentration of the dosing solution was 2.8 mg/mL, and the dosing volume was 0.5 mL/kg. Serial blood samples were collected from the femoral artery before dosing and at 5, 10, 15, 30, 45 min, 1, 2, 4, 6, 8 and 24 hr after dosing.
In the PO study, the monkeys were fasted overnight before dosing. […] The concentration of the dosing solution was 9.8 mg/mL, and the dosing volume was 0.5 mL/kg. Serial blood samples were collected before dosing and at 15, 30, 45 min, 1, 2, 4, 6, 8 and 24 hr after dosing.

[3] = cynomolgus monkey, plasma, monkey, historical parent, PO 5 mg/kg, read-out: Bioavailability (%)
[4] = cynomolgus monkey, plasma, monkey, historical parent, PO 5 mg/kg, read-out: Tmax (hr), PO
[5] = male, cynomolgus monkey, plasma, monkey, oral prodrug, read-out: Bioavailability (%) of parent from prodrug
[6] = male, cynomolgus monkey, plasma, monkey, parent after oral prodrug (~4-6 mg/kg parent equivalent), read-out: Tmax (hr), PO
[7] = cynomolgus monkey, plasma, iv, 1 mg/kg, read-out: AUCtot
[8] = cynomolgus monkey, plasma, iv, 1 mg/kg, read-out: MRT
[9] = cynomolgus monkey, plasma, iv, 1 mg/kg, read-out: Vdss
[10] = cynomolgus monkey, plasma, oral, 5 mg/kg, read-out: C-24 hr
[11] = cynomolgus monkey, plasma, po, 5 mg/kg, read-out: AUCtot
[12] = cynomolgus monkey, plasma, po, 5 mg/kg, read-out: Cmax

## COc1ncc(OC)c2c(C(=O)C(=O)N3CCN(C(=O)c4ccccc4)CC3)c[nH]c12 [IVa, N-(benzoyl)-N′-[(4,7-dimethoxy-6-azaindol-3-yl)-oxoacetyl]piperazine]
[1]; CD, male rats, Iab 16 mg/kg PO, analyte = label, read-out: C24 h
  concentration at 24 h: 0.09 µM
[1]; CD, male rats, Iab 16 mg/kg PO, analyte = label, read-out: T½ (converted)
  half-life: 3.2 h
[1]; CD, male rats, Iab 72 mg/kg PO, analyte = label, read-out: C24 h
  concentration at 24 h: 0.027 µM
[1]; CD, male rats, Iab 72 mg/kg PO, analyte = label, read-out: T½ (converted)
  half-life: 2.3 h
[1]; CD, male rats, Iab 267 mg/kg PO, AUC from zero to ∞, read-out: AUC
  AUC: 1160 µM·h
[1]; CD, male rats, Iab 267 mg/kg PO, analyte = label, read-out: C24 h
  concentration at 24 h: 1.9 µM
[1]; CD, male rats, Iab 267 mg/kg PO, analyte = label, read-out: T½ (converted)
  half-life: 3.4 h
[1]; CD, male rats, single oral dose Iab 16 mg/kg (13 mg/kg IVa molar equiv.), water, analyte = label
  Cmax: 26 µM
[1]; CD, male rats, single oral dose Iab 72 mg/kg (57 IVa equiv.), analyte = label
  Cmax: 104 µM
[1]; CD, male rats, single oral dose Iab 267 mg/kg (211 IVa equiv.), analyte = label
  Cmax: 214 µM
[1]; male, CD, po, 16 mg/kg, read-out: AUC
  AUC: 67 µM·h
[1]; male, CD, po, 72 mg/kg, read-out: AUC
  AUC: 261 µM·h
[2]; cynomolgus monkey, plasma, monkey, historical parent, IV 1 mg/kg, read-out: AUCtot (μM · hr), IV
  AUC: 9.2 ± 0.53 µM·h
[2]; cynomolgus monkey, plasma, monkey, historical parent, IV 1 mg/kg, read-out: CLtot (mL/min/kg), IV
  clearance: 4.3 ± 0.26 mL/min/kg
[2]; cynomolgus monkey, plasma, monkey, historical parent, IV 1 mg/kg, read-out: MRT (hr), IV
  MRT: 2.4 ± 0.15 h
[2]; cynomolgus monkey, plasma, monkey, historical parent, IV 1 mg/kg, read-out: Vdss (L/kg), IV
  Vd: 0.63 ± 0.39 L/kg
[2]; cynomolgus monkey, plasma, monkey, historical parent, IV 1 mg/kg, read-out: t1/2 (hr), IV (converted)
  half-life: 4.7 ± 0.31 h
[2]; cynomolgus monkey, plasma, monkey, historical parent, PO 5 mg/kg, read-out: AUCtot (μM · hr), PO
  AUC: 27 ± 2.9 µM·h
[2]; [3]
  bioavailability: 60%
[2]; cynomolgus monkey, plasma, monkey, historical parent, PO 5 mg/kg, read-out: C-24 hr (μM), PO
  concentration at 24 hr: 0.074 ± 0.032 µM
[2]; cynomolgus monkey, plasma, monkey, historical parent, PO 5 mg/kg, read-out: Cmax (μM), PO
  Cmax: 5.8 ± 1.2 µM
[2]; [4]
  Tmax: 2.7 h
[2]; cynomolgus monkey, plasma, monkey, historical parent, PO 5 mg/kg, read-out: t1/2 (hr), PO (converted)
  half-life: 4.2 ± 0.64 h
[2]; male, cynomolgus monkey, plasma, monkey, after IV prodrug (~1.1 mg/kg parent equivalent), analyte = label, read-out: AUCtot (μM · hr), IV
  AUC: 7.1 ± 1 µM·h
[2]; male, cynomolgus monkey, plasma, monkey, after IV prodrug, analyte = label, read-out: t1/2 (hr), IV (converted)
  half-life: 4.8 ± 1.9 h
[2]; [5]
  bioavailability: 66%
[2]; [6]
  Tmax: 0.83 h
[2]; male, cynomolgus monkey, plasma, monkey, parent after oral prodrug, read-out: t1/2 (hr), PO (converted)
  half-life: 4.8 ± 1.3 h
[2]; monkey
  IV AUC Ratio of parent (formed from prodrug vs historical parent study): 0.70
[2]; monkey, oral prodrug vs historical parent
  PO AUC Ratio of parent: 1.1

## O=C(C(=O)N1CCN(C(=O)c2ccccc2)CC1)c1c[nH]c2c(-n3ccnn3)ncc(F)c12 [IVb]
[1]; male, Sprague Dawley, oral, 19 mg/kg (free acid), read-out: C24h
  concentration at 24 h: 0.048 µM
[1]; male, Sprague Dawley, oral, 64 mg/kg (free acid), read-out: C24h
  concentration at 24 h: 0.29 µM
[1]; male, Sprague Dawley, oral, 236 mg/kg (free acid), read-out: C24h
  concentration at 24 h: 29 µM
[1]; male, Sprague Dawley, po, 19 mg/kg
  Cmax: 58 µM
[1]; male, Sprague Dawley, po, 19 mg/kg, read-out: AUC from zero to ∞
  AUC: 283 µM·h
[1]; male, Sprague Dawley, po, 19 mg/kg, read-out: T1/2 (converted)
  half-life: 2.1 h
[1]; male, Sprague Dawley, po, 64 mg/kg
  Cmax: 135 µM
[1]; male, Sprague Dawley, po, 64 mg/kg, read-out: AUC from zero to ∞
  AUC: 997 µM·h
[1]; male, Sprague Dawley, po, 64 mg/kg, read-out: T1/2 (converted)
  half-life: 2.1 h
[1]; male, Sprague Dawley, po, 236 mg/kg
  Cmax: 290 µM
[1]; male, Sprague Dawley, po, 236 mg/kg, read-out: AUC from zero to ∞
  AUC: 3700 µM·h
[1]; male, Sprague Dawley, po, 236 mg/kg, read-out: T1/2 (converted)
  half-life: 5.8 h
[1]
  time post-dose at which mean maximum plasma concentration (Cmax) was achieved: 1 to 3 h
[2]; [7]
  AUC: 10 ± 1.2 µM·h
[2]; cynomolgus monkey, plasma, iv, 1 mg/kg, read-out: CLtot
  clearance: 3.7 ± 0.43 mL/min/kg
[2]; [8]
  MRT: 5.6 ± 6.3 h
[2]; cynomolgus monkey, plasma, iv, 1 mg/kg, read-out: T1/2 (converted)
  half-life: 19 ± 20 h
[2]; [9]
  Vd: 1.2 ± 1.4 L/kg
[2]; [10]
  concentration at 24 h: 0.24 µM
[2]; [11]
  AUC: 24 µM·h
[2]; [12]
  Cmax: 4.2 µM
[2]; cynomolgus monkey, plasma, po, 5 mg/kg, read-out: T1/2 (converted)
  half-life: 11 h
[2]; [3]
  bioavailability: 49%
[2]; [4]
  Tmax: 2.5 h
[2]; male, cynomolgus monkey, plasma, iv, […], read-out: T1/2 (converted)
  half-life: 6.5 ± 2.4 h
[2]; male, cynomolgus monkey, plasma, oral, […], read-out: Bioavailability
  bioavailability: 187%
[2]; male, cynomolgus monkey, plasma, po, […], read-out: T1/2 (converted)
  half-life: 4.1 ± 1.1 h
[2]; male, cynomolgus monkey, plasma, po, […], read-out: Tmax
  Tmax: 1.5 ± 0.87 h
[2]; [5]
  bioavailability: 187%
[2]; [6]
  Tmax: 1.5 h

## COc1cnc(-n2cnc(C)n2)c2[nH]cc(C(=O)C(=O)N3CCN(C(=O)c4ccccc4)CC3)c12 [IVc]
[1]; male, CD, oral, 5 mg/kg, read-out: C24 h
  concentration at 24 h: 0.029 µM
[1]; male, CD, oral, 25 mg/kg, read-out: C24 h
  concentration at 24 h: 0.35 µM
[1]; male, CD, oral, 200 mg/kg, read-out: C24 h
  concentration at 24 h: 58 µM
[1]; male, CD, po, 5 mg/kg
  Cmax: 29 µM
[1]; male, CD, po, 5 mg/kg, read-out: AUC from zero to ∞
  AUC: 109 µM·h
[1]; male, CD, po, 25 mg/kg
  Cmax: 98 µM
[1]; male, CD, po, 25 mg/kg, read-out: AUC from zero to ∞
  AUC: 586 µM·h
[1]; male, CD, po, 200 mg/kg
  AUC: 2920 µM·h
  Cmax: 281 µM
[1]
  time post-dose at which mean maximum plasma concentration (Cmax) was achieved: ≤ 1.7 h
[2]; [7]
  AUC: 5 ± 1 µM·h
[2]; [8]
  MRT: 0.87 ± 0.085 h
[2]; [9]
  Vd: 0.4 ± 0.097 L/kg
[2]; [10]
  concentration at 24 hr: 0.017 ± 0.011 µM
[2]; [11]
  AUC: 14 ± 4 µM·h
[2]; [12]
  Cmax: 4.2 ± 2.6 µM
[2]; [3]
  bioavailability: 64%
[2]; [4]
  Tmax: 2.3 h
[2]; male, cynomolgus monkey, plasma, oral, 4.9 mg/kg, read-out: Bioavailability
  bioavailability: 122%
[2]; male, cynomolgus monkey, plasma, oral, 4.9 mg/kg, read-out: C-24 hr
  concentration at 24 hr: 0.007 ± 0.002 µM
[2]; male, cynomolgus monkey, plasma, po, 4.9 mg/kg, read-out: AUCtot
  AUC: 24 ± 4.6 µM·h
[2]; male, cynomolgus monkey, plasma, po, 4.9 mg/kg, read-out: Cmax
  Cmax: 9.5 ± 1.2 µM
[2]; male, cynomolgus monkey, plasma, po, 4.9 mg/kg, read-out: Tmax
  Tmax: 0.92 ± 0.14 h
[2]; [5]
  bioavailability: 122%
[2]; [6]
  Tmax: 0.92 h
[2]; monkey, PO IVc 5 mg/kg, historical IVc
  Tmax: 2.3 ± 1.5 h

From patent US20150315218A1, “SALTS OF PRODRUGS OF PIPERAZINE AND SUBSTITUTED PIPERIDINE ANTIVIRAL AGENTS” (Bristol-Myers Squibb Company, priority 2004, published 2015)
